Laboratory results as given in article PMC11002876, “KcsA-Kv1.x chimeras with complete ligand-binding sites provide improved predictivity for screening selective Kv1.x blockers” (The Journal of Biological Chemistry, 2024).
Where two headings read alike, the source gives them in different places. Where a SMILES comes first, the peptide text is derived from it.

What was measured:
[1] = biological target: T1, KcsA-Kv1.1 T+F chimera (Streptomyces lividans, UniProt P0A334, A54E/A57S/G53E/G56E/I60S/L59F/L81M/P55A/Q58H/R52A/R64D/T61S/Y62I); test: Phage-binding competition assay, KcsA-Kv1.1 T+F; parameters: species or system human Kv1.1 turret and filter in Streptomyces lividans KcsA
T1 sequence (P0A334 1-160 R52A/G53E/A54E/P55A/G56E/A57S/Q58H/L59F/I60S/T61S/Y62I/R64D/L81M): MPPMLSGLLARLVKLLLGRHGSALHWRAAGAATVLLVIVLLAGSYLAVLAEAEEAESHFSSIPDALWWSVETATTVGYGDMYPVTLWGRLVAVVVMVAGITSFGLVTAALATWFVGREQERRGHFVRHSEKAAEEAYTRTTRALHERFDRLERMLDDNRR
Protocol: (§1) Phage stock solutions were diluted to working concentration with phage resuspension buffer supplemented with 2 mM DDM. For protein immobilization, the following amounts were used in a final volume of 50 μl/well: wt KcsA, 0.1 μg; KcsA-Kv1.1 T-only, 0.005 μg; KcsA-Kv1.1 T+F, 0.02 μg; KcsA-Kv1.2 T-only, 0.01 μg; KcsA-Kv1.2 T+F, 0.1 μg; KcsA-Kv1.3 T-only, 0.01 μg; and KcsA-Kv1.3 T+F, 0.1 μg. Protein samples were diluted in 50 μl of storage buffer (20 mM Tris pH8.0, 300 mM KCl, 2 mM DDM) and were added to the designated wells of a Pierce Clear, 96-Well Nickel Coated Plate (15442, Thermo Fisher Scientific), then incubated for 1 h at room temperature on a horizontal shaker at 130 rpm. The plate was blocked for 1 h at room temperature with 180 μl/well TBS-BSA supplemented with 1 mM DDM. Following blocking, the wells were washed 4× with washing buffer (300 μl TBS-Tween, 0.1% v/v) using a Wellwash Versa microplate washer (Thermo Fisher Scientific); then 50 μl phage solution (in TBS-BSA-Tween, 0.1% v/v, 2 mM DDM) at determined phage concentration was added to the wells and incubated for 1 h at room temperature on a horizontal shaker. The plate was washed 4× with washing buffer, then 50 μl anti-M13 IgG HRP (MA5-36125, Invitrogen) diluted to 1:2500 in TBS-Tween (0.1% v/v) was added to the wells and incubated for 1 h at room temperature. The plate was washed again 4× with 300 μl/well washing buffer. Finally, 50 μl/well 1-Step Ultra TMB-ELISA solution (34028, Thermo Fisher Scientific) was added to the wells, and the developing signal was stopped with 50 μl 1M HCl after 5 to 10 min. The light absorbance signal was read at 450 nm with Byonoy absorbance 96 plate reader (Byonoy GmbH).
(§2) For protein immobilization, the following amounts were used in a final volume of 50 μl/well: KcsA-Kv1.1 T-only, 0.005 μg; KcsA-Kv1.1 T+F, 0.01 μg; KcsA-Kv1.2 T-only, 0.025 μg; KcsA-Kv1.2 T+F, 0.0125 μg; KcsA-Kv1.3 T-only, 0.01 μg; and KcsA-Kv1.3 T+F, 0.1 μg. Protein samples were diluted in storage buffer. Binding of given concentrations of relevant ligand-displaying phages quantified by light absorbance ([…]) were investigated in a similar manner as in phage ELISA-binding assay, while different concentrations of competing toxin test substances were applied simultaneously. The results were converted to percent inhibitions (percent displacement) of the indicator phage binding, and relative affinities of the tested toxins were assessed by plotting percent displacements against log concentrations and determining half maximal inhibitory concentrations (IC50) by sigmoidal curve fitting using “Sigmoidal dose-response (variable slope) with least squares method” algorithm in GraphPad Prism 8 using the following equation: Y=Bottom+Top−Bottom/1+10^(LogEC50−×)⋅HillSlope

[2] = biological target: T2, KcsA-Kv1.1 T+F chimera (Streptomyces lividans, UniProt P0A334, R52A/G53E/A54E/P55A/G56E/A57S/Q58H/L59F/I60S/T61S/Y62I/R64D/L81M); test: Phage-binding competition assay, KcsA-Kv1.1 T+F; parameters: species or system human Kv1.1 turret and filter in Streptomyces lividans KcsA; details: for competition binding to KcsA-Kv1.1 T+F, in words: ShK-phage competition, native peptide, Fig. 8F (ligand-binding pattern); for Rank, T+F chimera (Kv1.1): rank by competition IC50 among ShK, KTX1, MTX
T2 sequence (P0A334 1-160 R52A/G53E/A54E/P55A/G56E/A57S/Q58H/L59F/I60S/T61S/Y62I/R64D/L81M): T1 sequence (P0A334 1-160 R52A/G53E/A54E/P55A/G56E/A57S/Q58H/L59F/I60S/T61S/Y62I/R64D/L81M)
Protocol: as §1, §2

[3] = displacement of ShK-phage, KcsA-Kv1.1 T+F 0.01 μg/well on nickel-coated plate, mean ± SD (n = 3), NQ = not quantifiable, read-out: IC50, T+F chimera (Kv1.1)

Structure (SMILES)	IC50 [1, 3]	competition binding to KcsA-Kv1.1 T+F, in words [2]	Rank, T+F chimera (Kv1.1) [2]	competition binding to KcsA-Kv1.1 T+F, in words ([2]; listed as MTX1)	IC50 ([1]; ShK-phage competition, T+F KcsA-Kv1.1, value given in figure, sigmoidal fit to means of three replicates, read-out: IC50 (Fig. 8F))
CC[C@H](C)[C@H](NC(=O)[C@H](CCC(=O)O)NC(=O)[C@@H](NC(=O)CN)C(C)C)C(=O)N[C@@H](CC(N)=O)C(=O)N[C@H](C(=O)N[C@@H](CCCCN)C(=O)N[C@H]1CSSC[C@@H]2NC(=O)[C@H](CCCCN)NC(=O)CNC(=O)[C@H](Cc3ccccc3)NC(=O)[C@H](CCCNC(=N)N)NC(=O)[C@H](CCSC)NC(=O)CNC(=O)[C@H](C)NC(=O)[C@H](CC(=O)O)NC(=O)[C@H](CCCCN)NC(=O)[C@@H]3CSSC[C@@H](C(=O)N[C@H](C(=O)N4CCC[C@H]4C(=O)N[C@@H](CCCCN)C(=O)O)[C@@H](C)O)NC(=O)[C@H](Cc4c[nH]cn4)NC(=O)[C@H](CSSC[C@H](NC(=O)[C@H](CCC(N)=O)NC(=O)[C@@H]4CCCN4C(=O)[C@H](CO)NC(=O)CNC(=O)[C@H](CO)NC1=O)C(=O)N[C@@H](CC(C)C)C(=O)N[C@@H](CCCCN)C(=O)N1CCC[C@H]1C(=O)N3)NC(=O)[C@H](CCCCN)NC(=O)[C@H](CCCNC(=N)N)NC(=O)[C@H](CC(N)=O)NC(=O)[C@H](CCSC)NC2=O)C(C)C [KTX1, Kaliotoxin-1]	1.49 nM	ShK > KTX1 > MTX	2	–	–
CC[C@H](C)[C@@H]1NC(=O)[C@@H]2CSSC[C@H](NC(=O)[C@H](CO)NC(=O)[C@@H](N)C(C)C)C(=O)N[C@@H]([C@@H](C)O)C(=O)NCC(=O)N[C@@H](CO)C(=O)N[C@@H](CCCCN)C(=O)N[C@@H](CC(=O)O)C(=O)N[C@@H](CSSC[C@@H](C(=O)N[C@@H](CCCCN)C(=O)N[C@H]3CSSC[C@@H](C(N)=O)NC(=O)CNC(=O)[C@H](Cc4ccc(O)cc4)NC3=O)NC(=O)[C@H](CO)NC(=O)[C@H](CCCCN)NC(=O)[C@H](CC(N)=O)NC1=O)C(=O)N[C@@H](Cc1ccc(O)cc1)C(=O)N[C@@H](C)C(=O)N1CCC[C@H]1C(=O)N[C@H]1CSSC[C@H](NC(=O)CNC(=O)[C@H]([C@@H](C)O)NC(=O)[C@H](CCC(N)=O)NC(=O)[C@H](CCCCN)NC(=O)[C@H](CCCNC(=N)N)NC1=O)C(=O)N1CCC[C@H]1C(=O)N[C@@H](CC(N)=O)C(=O)N[C@@H](C)C(=O)N[C@@H](CCCCN)C(=O)N2 [MTX, Maurotoxin] (HELM PEPTIDE1{V.S.C.T.G.S.K.D.C.Y.A.P.C.R.K.Q.T.G.C.P.N.A.K.C.I.N.K.S.C.K.C.Y.G.C.[am]}$PEPTIDE1,PEPTIDE1,3:R3-24:R3|PEPTIDE1,PEPTIDE1,9:R3-29:R3|PEPTIDE1,PEPTIDE1,13:R3-19:R3|PEPTIDE1,PEPTIDE1,31:R3-34:R3$$$V2.0; N-terminus and C-terminus assumed)	> 1000 nM	ShK > KTX1 > MTX	3	negligible binding	–
CC[C@H](C)[C@@H]1NC(=O)[C@@H](NC(=O)[C@H](CO)NC(=O)[C@@H](N)CCCNC(=N)N)CSSC[C@@H](C(=O)O)NC(=O)[C@H]([C@@H](C)O)NC(=O)CNC(=O)[C@@H]2CSSC[C@@H]3NC(=O)[C@H](CCC(N)=O)NC(=O)[C@H](Cc4ccccc4)NC(=O)[C@H](C)NC(=O)[C@H]([C@@H](C)O)NC(=O)[C@H](CSSC[C@H](NC(=O)[C@H](Cc4ccccc4)NC(=O)[C@H](CO)NC(=O)[C@H](CC(C)C)NC(=O)[C@H](CCCNC(=N)N)NC(=O)[C@H](Cc4ccc(O)cc4)NC(=O)[C@H](CCCCN)NC(=O)[C@H](CCSC)NC(=O)[C@H](CO)NC(=O)[C@H](Cc4c[nH]cn4)NC(=O)[C@H](CCCCN)NC3=O)C(=O)N[C@@H](CCCNC(=N)N)C(=O)N[C@@H](CCCCN)C(=O)N[C@@H]([C@@H](C)O)C(=O)N2)NC(=O)[C@H](CCCNC(=N)N)NC(=O)[C@H](CO)NC(=O)[C@H](CCCCN)NC(=O)[C@@H]2CCCN2C(=O)[C@H]([C@@H](C)CC)NC(=O)[C@H]([C@@H](C)O)NC(=O)[C@H](CC(=O)O)NC1=O [ShK, Stichodactyla toxin]	–	ShK > KTX1 > MTX	1	–	0.271 nM
